According to publication PMC10502144, “Anti-methicillin-resistant Staphylococcus aureus activity and safety evaluation of 14-O-[(5-ethoxycarbonyl-4,6-dimethylpyrimidine-2-yl) thioacetyl] mutilin (EDT)” (Scientific Reports, 2023):

Tests used:
female Wistar rats = assay: Acute oral toxicity test (OECD423); format: in vivo; details: for Absolute organ weight, Heart / Absolute organ weight, Kidneys / Absolute organ weight, Liver / Absolute organ weight, Lungs / Absolute organ weight, Ovaries / Absolute organ weight, Spleen / Absolute organ weight, Uterus: 2000 mg/kg oral single dose; for Relative organ weight, Kidneys: organ/b.w. × 100
Procedure: Adult specific pathogen free (SPF) female Wistar rats (4–6 weeks old) were purchased from Lanzhou Veterinary Research Institute, Chinese Academy of Agricultural Sciences. Animals were kept in clean stainless steel cages (3 rats per cage), free access to food and water and maintained under the 23 °C conditions with a constant 12 h light–dark cycle. Animals were acclimatized for at least 7 days before the experiment. […] The animal study was carried out in compliance with the ARRIVE guidelines.
Acute toxicity tests of EDT were performed according to OECD423 bulletin[23]. This method can measure drug roughly LD50 with fewer experimental animals. […] Six animals were randomly separated into one treatment group (n = 3) and control group (n = 3). Rats in treatment group were orally administered with a single dose of 2000 mg/kg of EDT dissolved in vehicle (corn oil: DMSO = 4:1) in a volume of 10 mL/kg body weight (b.w.) by gavage. Animals in the control group only received 10 mL/kg vehicle. […] After first round treatment, observations were focused on mortality, behavioural symptoms and changes in skin, eyes and fur. Individual body weight was recorded at the starting of protocol and at the end of protocol. […] On the 14th day, all the surviving animals were euthanized with ketamine hydrochloride 70 mg/kg (i.p.) and their hearts, livers, spleens, lungs, kidneys, uterus and ovaries were individually observed for overt pathology and removed for relative weight calculation (organ/b.w. × 100).

[1] = Microsomal stability assay, mouse; format: in vitro ADME; details: mouse liver microsomes
Procedure: Mouse and human liver microsomes were thawed slowly on ice. A total of 5 mg/mL of microsomes, 2 μL of a 100 μM solution of EDT and 183 μL of 100 mM phosphate buffer were incubated 5 min at 37 °C in a water bath. Reactions were initiated using 10 μL of 20 mM NADPH. Samples were incubated in three replicates at 37 °C under gentle agitation at 150 rpm. At 0, 5, 15, 30, and 60 min, reactions were terminated by the addition of 180 μL of acetonitrile. After centrifugation (4000 rpm, 10 min), samples were then analyzed by liquid chromatography/tandem mass spectrometry (LC–MS/MS). Peak areas of the respective time point of the compound were normalized to the peak area at time point 0 min. Then half-life was calculated using linear regression from log percentage (t1/2 = − 0.693/k).

C=CC1(C)CC(OC(=O)CSc2nc(C)c(C(=O)OCC)c(C)n2)C2(C)C(C)CCC3(CCC(=O)C32)C(C)C1O (stereo not drawn) [EDT, 14-O-[(5-ethoxycarbonyl-4,6-dimethylpyrimidine-2-yl)thioacetyl] mutilin]
LD50 (female Wistar rats; female Wistar rats, single oral dose, OECD Guidelines 423): more than 2000 mg/kg body weight | Absolute organ weight, Heart (female Wistar rats; first round treatment, day 14): 0.71 ± 0.06 g | Absolute organ weight, Kidneys (female Wistar rats; first round treatment, day 14): 1.11 ± 0.01 g | Absolute organ weight, Liver (female Wistar rats; first round treatment, day 14): 9.66 ± 0.17 g | Absolute organ weight, Lungs (female Wistar rats; first round treatment, day 14): 1.38 ± 0.03 g | Absolute organ weight, Ovaries (female Wistar rats; first round treatment, day 14): 0.06 ± 0.00 g | Absolute organ weight, Spleen (female Wistar rats; first round treatment, day 14): 0.70 ± 0.03 g | Absolute organ weight, Uterus (female Wistar rats; first round treatment, day 14): 0.45 ± 0.02 g | Relative organ weight, Kidneys (female Wistar rats; first round treatment): 0.52 ± 0.01% | Relative organ weight, Ovaries (female Wistar rats; rat, in vivo): 0.03 ± 0.00% | Relative organ weight, Spleen (female Wistar rats; rat, in vivo): 0.33 ± 0.01% | mortality (female Wistar rats; rat, in vivo, po, 2000 mg/kg): no mortality | Absolute organ weight, Heart (female Wistar rats; second round treatment, day 14): 0.75 ± 0.03 g | Absolute organ weight, Kidneys (female Wistar rats; second round treatment, day 14): 1.11 ± 0.03 g | Absolute organ weight, Liver (female Wistar rats; second round treatment, day 14): 9.69 ± 0.06 g | Absolute organ weight, Lungs (female Wistar rats; second round treatment, day 14): 1.40 ± 0.05 g | Absolute organ weight, Ovaries (female Wistar rats; second round treatment, day 14): 0.06 ± 0.00 g | Absolute organ weight, Spleen (female Wistar rats; second round treatment, day 14): 0.71 ± 0.03 g | Absolute organ weight, Uterus (female Wistar rats; second round treatment, day 14): 0.43 ± 0.03 g | Relative organ weight, Kidneys (female Wistar rats; second round treatment): 0.52 ± 0.01% | body weight compared to the control group (female Wistar rats; single oral 2000 mg/kg, 14 days): did not produce alterations in body weight | macroscopic necropsy examination (female Wistar rats; single oral 2000 mg/kg, day 14): no gross pathological lesions | half-life at 1 μM [1]: 30.1 min | microsomal CLint at 1 μM [1]: 46 µL/min/mg
